Assay results published in PubChem BioAssay AID2060506 (Molecular Pharmacology Branch, DTP, NCI, 2025).

Test system: 598228-144-R-J1-PDC complex spheroid viability
Assay: Anticancer human tumor 598228-144-R-J1-PDC patient-derived serous endometrial adenocarcinoma cell line growth inhibition [GQUAD]
Conditions: for IC50: curve of first compound; for viability, T/C: stronger effect = lower value
Procedure, shortened: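 Viability of tumor cells grown as complex spheroids with endothelial and stromal cells, exposed to drug combinations. Top concentration at or near clinical Cmax (else 10 microM), diluted in half-log increments.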

[1] = second compound 0.0316 µM, first compound 0.0316 µM
[2] = second compound 0.0316 µM, first compound 0.1 µM
[3] = second compound 0.0316 µM, first compound 0.316 µM
[4] = second compound 0.0316 µM, first compound 1 µM
[5] = second compound 0.0316 µM, first compound 3.16 µM
[6] = second compound 0.0316 µM, first compound 10 µM
[7] = second compound 0.1 µM, first compound 0.0316 µM
[8] = second compound 0.1 µM, first compound 0.1 µM
[9] = second compound 0.1 µM, first compound 0.316 µM
[10] = second compound 0.1 µM, first compound 1 µM
[11] = second compound 0.1 µM, first compound 3.16 µM
[12] = second compound 0.1 µM, first compound 10 µM
[13] = second compound 0.316 µM, first compound 0.0316 µM
[14] = second compound 0.316 µM, first compound 0.1 µM
[15] = second compound 0.316 µM, first compound 0.316 µM
[16] = second compound 0.316 µM, first compound 1 µM
[17] = second compound 0.316 µM, first compound 3.16 µM
[18] = second compound 0.316 µM, first compound 10 µM
[19] = second compound 1 µM, first compound 0.0316 µM
[20] = second compound 1 µM, first compound 0.1 µM
[21] = second compound 1 µM, first compound 0.316 µM
[22] = second compound 1 µM, first compound 1 µM
[23] = second compound 1 µM, first compound 3.16 µM
[24] = second compound 1 µM, first compound 10 µM
[25] = second compound 3.16 µM, first compound 0.0316 µM
[26] = second compound 3.16 µM, first compound 0.1 µM
[27] = second compound 3.16 µM, first compound 0.316 µM
[28] = second compound 3.16 µM, first compound 1 µM
[29] = second compound 3.16 µM, first compound 3.16 µM
[30] = second compound 3.16 µM, first compound 10 µM
[31] = second compound 10 µM, first compound 0.0316 µM
[32] = second compound 10 µM, first compound 0.1 µM
[33] = second compound 10 µM, first compound 0.316 µM
[34] = second compound 10 µM, first compound 1 µM
[35] = second compound 10 µM, first compound 3.16 µM
[36] = second compound 10 µM, first compound 10 µM
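Also: spheroids exposed to the agents for one week before reading.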
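For viability, T/C in this document: percent of vehicle DMSO control viability so 100% = untreated growth.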

C#Cc1c(F)ccc2cc(O)cc(-c3ncc4c(N5CC6CCC(C5)N6)nc(OCC56CCCN5CC(F)C6)nc4c3F)c12 (stereo not drawn) + Cc1cnc(CNC(=O)c2c(=O)c3ccc(N4CCCN(C)CC4)nc3n3c2sc2ccccc23)cn1 gave an IC50 (second compound 0.0316 µM) of over 10000 nM, an IC50 (second compound 0.1 µM) of over 10000 nM and an IC50 (second compound 0.316 µM) of over 10000 nM. It also gave an IC50 (second compound 1 µM) of 8910 nM, an IC50 (second compound 3.16 µM) of 31.6 nM and an IC50 (second compound 10 µM) of under 31.6 nM. The viability, T/C [1] was 99.8%, the viability, T/C [2] was 88.6% and the viability, T/C [3] was 85.6%. The viability, T/C [4] was 83.2%, the viability, T/C [5] was 101% and the viability, T/C [6] was 81.7%. For the same compound, the viability, T/C [7] was 64.3%, the viability, T/C [8] was 77.7% and the viability, T/C [9] was 71.6%. It also gave a viability, T/C [10] of 63.7%, a viability, T/C [11] of 69.7% and a viability, T/C [12] of 68.7%. For the same compound, the viability, T/C [13] was 75%, the viability, T/C [14] was 58.8% and the viability, T/C [15] was 62.7%. The viability, T/C [16] was 55.4%, the viability, T/C [17] was 69.9% and the viability, T/C [18] was 53.1%. It also gave a viability, T/C [19] of 57%, a viability, T/C [20] of 53.4% and a viability, T/C [21] of 54%. It also gave a viability, T/C [22] of 58.9%, a viability, T/C [23] of 52.4% and a viability, T/C [24] of 46.1%. For the same compound, the viability, T/C [25] was 46.5%, the viability, T/C [26] was 50.9% and the viability, T/C [27] was 46.8%. The viability, T/C [28] was 40.5%, the viability, T/C [29] was 52.2% and the viability, T/C [30] was 27.9%. The viability, T/C [31] was 25.5%, the viability, T/C [32] was 30.3% and the viability, T/C [33] was 20.4%. It also gave a viability, T/C [34] of 24.2%, a viability, T/C [35] of 7.19% and a viability, T/C [36] of 0.48%.
Work on CC(=O)O[C@H]1C(=O)[C@@]2(C)[C@H]([C@H](OC(=O)c3ccccc3)[C@]3(O)C[C@H](OC(=O)[C@H](O)[C@@H](NC(=O)c4ccccc4)c4ccccc4)C(C)=C1C3(C)C)[C@]1(OC(C)=O)CO[C@@H]1C[C@@H]2O + Cc1cnc(CNC(=O)c2c(=O)c3ccc(N4CCCN(C)CC4)nc3n3c2sc2ccccc23)cn1 yielded an IC50 (second compound 0.0316 µM) of under 31.6 nM, an IC50 (second compound 0.1 µM) of under 31.6 nM and an IC50 (second compound 0.316 µM) of 533 nM. It also gave an IC50 (second compound 1 µM) of 7490 nM, an IC50 (second compound 3.16 µM) of under 31.6 nM and an IC50 (second compound 10 µM) of under 31.6 nM. For the same compound, the viability, T/C [1] was 50.2%, the viability, T/C [2] was 37% and the viability, T/C [3] was 45.2%. The viability, T/C [4] was 41.3%, the viability, T/C [5] was 43.7% and the viability, T/C [6] was 43.2%. For the same compound, the viability, T/C [7] was 48.4%, the viability, T/C [8] was 54.9% and the viability, T/C [9] was 44.5%. The viability, T/C [10] was 49.9%, the viability, T/C [11] was 53.2% and the viability, T/C [12] was 51.7%. For the same compound, the viability, T/C [13] was 49%, the viability, T/C [14] was 67.9% and the viability, T/C [15] was 45.9%. The viability, T/C [16] was 39.1%, the viability, T/C [17] was 51.2% and the viability, T/C [18] was 49.6%. It also gave a viability, T/C [19] of 52.1%, a viability, T/C [20] of 59.9% and a viability, T/C [21] of 53.2%. For the same compound, the viability, T/C [22] was 50%, the viability, T/C [23] was 50% and the viability, T/C [24] was 50.9%. It also gave a viability, T/C [25] of 46.9%, a viability, T/C [26] of 38.8% and a viability, T/C [27] of 43.2%. It also gave a viability, T/C [28] of 34.5%, a viability, T/C [29] of 40.4% and a viability, T/C [30] of 44.5%. For the same compound, the viability, T/C [31] was 0.38%, the viability, T/C [32] was 19.7% and the viability, T/C [33] was 0.53%. The viability, T/C [34] was 0.57%, the viability, T/C [35] was 10.9% and the viability, T/C [36] was 12.1%.
For CCCS(=O)(=O)Nc1ccc(F)c(C(=O)c2c[nH]c3ncc(-c4ccc(Cl)cc4)cc23)c1F + Cc1cnc(CNC(=O)c2c(=O)c3ccc(N4CCCN(C)CC4)nc3n3c2sc2ccccc23)cn1, the IC50 (second compound 0.0316 µM) was 6970 nM, the IC50 (second compound 0.1 µM) was 6450 nM and the IC50 (second compound 0.316 µM) was 4940 nM. The IC50 (second compound 1 µM) was 5230 nM, the IC50 (second compound 3.16 µM) was 3620 nM and the IC50 (second compound 10 µM) was under 31.6 nM. The viability, T/C [1] was 92.8%, the viability, T/C [2] was 96% and the viability, T/C [3] was 113%. The viability, T/C [4] was 92.5%, the viability, T/C [5] was 109% and the viability, T/C [6] was 26.9%. For the same compound, the viability, T/C [7] was 77.7%, the viability, T/C [8] was 81.5% and the viability, T/C [9] was 60.7%. For the same compound, the viability, T/C [10] was 65.6%, the viability, T/C [11] was 92.2% and the viability, T/C [12] was 34.4%. It also gave a viability, T/C [13] of 59.4%, a viability, T/C [14] of 82% and a viability, T/C [15] of 74%. For the same compound, the viability, T/C [16] was 62.3%, the viability, T/C [17] was 65.7% and the viability, T/C [18] was 27.3%. For the same compound, the viability, T/C [19] was 64.5%, the viability, T/C [20] was 70.7% and the viability, T/C [21] was 62.3%. It also gave a viability, T/C [22] of 65.6%, a viability, T/C [23] of 73.8% and a viability, T/C [24] of 27.7%. For the same compound, the viability, T/C [25] was 59.9%, the viability, T/C [26] was 47.5% and the viability, T/C [27] was 48.4%. The viability, T/C [28] was 61.5%, the viability, T/C [29] was 65.6% and the viability, T/C [30] was 0.38%. The viability, T/C [31] was 33.5%, the viability, T/C [32] was 32.5% and the viability, T/C [33] was 18.7%. It also gave a viability, T/C [34] of 24.7%, a viability, T/C [35] of 40.9% and a viability, T/C [36] of 0.26%.
For Cc1[nH]c2ccccc2c1CCNCc1ccc(/C=C/C(=O)NO)cc1 + Cc1cnc(CNC(=O)c2c(=O)c3ccc(N4CCCN(C)CC4)nc3n3c2sc2ccccc23)cn1, the IC50 (second compound 0.0316 µM) was 54.4 nM, the IC50 (second compound 0.1 µM) was 20.2 nM and the IC50 (second compound 0.316 µM) was 16.1 nM. The IC50 (second compound 1 µM) was 11.6 nM, the IC50 (second compound 3.16 µM) was under 0.999 nM and the IC50 (second compound 10 µM) was under 0.999 nM. It also gave a viability, T/C (second compound 0.0316 µM, first compound 0.000999 µM) of 104%, a viability, T/C (second compound 0.0316 µM, first compound 0.00316 µM) of 116% and a viability, T/C (second compound 0.0316 µM, first compound 0.00999 µM) of 85.1%. The viability, T/C [1] was 67.3%, the viability, T/C (second compound 0.0316 µM, first compound 0.0999 µM) was 32.4% and the viability, T/C [3] was 0.76%. For the same compound, the viability, T/C (second compound 0.1 µM, first compound 0.000999 µM) was 80.7%, the viability, T/C (second compound 0.1 µM, first compound 0.00316 µM) was 71.8% and the viability, T/C (second compound 0.1 µM, first compound 0.00999 µM) was 61.1%. The viability, T/C [7] was 41.6%, the viability, T/C (second compound 0.1 µM, first compound 0.0999 µM) was 26.2% and the viability, T/C [9] was 0.82%. It also gave a viability, T/C (second compound 0.316 µM, first compound 0.000999 µM) of 69%, a viability, T/C (second compound 0.316 µM, first compound 0.00316 µM) of 66.9% and a viability, T/C (second compound 0.316 µM, first compound 0.00999 µM) of 53.3%. It also gave a viability, T/C [13] of 43.7%, a viability, T/C (second compound 0.316 µM, first compound 0.0999 µM) of 18.4% and a viability, T/C [15] of 0.28%. It also gave a viability, T/C (second compound 1 µM, first compound 0.000999 µM) of 62.7%, a viability, T/C (second compound 1 µM, first compound 0.00316 µM) of 67.1% and a viability, T/C (second compound 1 µM, first compound 0.00999 µM) of 49.7%. It also gave a viability, T/C [19] of 29.8%, a viability, T/C (second compound 1 µM, first compound 0.0999 µM) of 0.26% and a viability, T/C [21] of 0.37%. It also gave a viability, T/C (second compound 3.16 µM, first compound 0.000999 µM) of 49.4%, a viability, T/C (second compound 3.16 µM, first compound 0.00316 µM) of 49.4% and a viability, T/C (second compound 3.16 µM, first compound 0.00999 µM) of 39.9%. The viability, T/C [25] was 0.32%, the viability, T/C (second compound 3.16 µM, first compound 0.0999 µM) was 0.34% and the viability, T/C [27] was 0.25%. The viability, T/C (second compound 10 µM, first compound 0.000999 µM) was 20.6%, the viability, T/C (second compound 10 µM, first compound 0.00316 µM) was 16.2% and the viability, T/C (second compound 10 µM, first compound 0.00999 µM) was 0.43%. The viability, T/C [31] was 0.33%, the viability, T/C (second compound 10 µM, first compound 0.0999 µM) was 0.34% and the viability, T/C [33] was 0.31%.
